Values joined by “and” are separate entries in the source; they are usually repeats but may differ in a detail not shown here. Equal entries are not always repeated. Inconclusive results and toxic doses are left out. How the source made its calls: active means survival T/C of 150% or more; inactive means T/C below 125% in these data.
System: BDF1 mice, P388 leukemia ip, median survival T/C
Test: NCI In Vivo Anticancer Drug Screen. Data for tumor model P388 Leukemia (intraperitoneal) in B6D2F1 (BDF1) mice
Details: endpoint: median survival time, higher = longer survival
Method in brief: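 Compound-treated tumour-bearing mice were compared with vehicle-treated controls. Survival was recorded, and the value is the treated-group measurement divided by the control-group measurement (T/C).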

[1] = dose: 100.0 mg/kg/injection, schedule: Q01DX009 (ip), vehicle: saline with Tween-80
[2] = dose: 200.0 mg/kg/injection, schedule: Q01DX009 (ip), vehicle: saline with Tween-80
[3] = dose: 400.0 mg/kg/injection, schedule: Q01DX009 (ip), vehicle: saline with Tween-80
[4] = dose: 50.0 mg/kg/injection, schedule: Q01DX009 (ip), vehicle: saline with Tween-80
[5] = dose: 50.0 mg/kg/injection, schedule: Q01DX009 (ip), vehicle: saline
[6] = dose: 200.0 mg/kg/injection, schedule: Q01DX009 (ip), vehicle: saline

Measured: T/C

ClC1=C(Br)C(Br)(Br)C(=C(Br)Br)C1(Br)Br
inactive: [1] 100 % of control | dose: 100.0 mg/kg/injection, schedule: Q04DX003 (ip), vehicle: Klucel (hydroxypropylcellulose) (HPC) 90 % of control | [2] 109 % of control | [3] 104 % of control | dose: 400.0 mg/kg/injection, schedule: Q04DX003 (ip), vehicle: Klucel (hydroxypropylcellulose) (HPC) 100 % of control

CCOC1(c2ccccc2)c2cc(Cl)ccc2NC(=O)N1CC (stereo not given)
inactive: [4] 101 % of control | [1] 98 % of control | [2] 94 % of control

c1ccc(C/C(N=Nc2ccccc2)=N\Nc2ccccc2)cc1
inactive: dose: 50.0 mg/kg/injection, schedule: Q01DX009 (ip), vehicle: Klucel (hydroxypropylcellulose) (HPC) 110 % of control | dose: 100.0 mg/kg/injection, schedule: Q01DX009 (ip), vehicle: Klucel (hydroxypropylcellulose) (HPC) 110 % of control | dose: 200.0 mg/kg/injection, schedule: Q01DX009 (ip), vehicle: Klucel (hydroxypropylcellulose) (HPC) 100 % of control

[Se]c1ccnc([Se])n1
inactive: dose: 50.0 mg/kg/injection, schedule: Q04DX003 (ip), vehicle: saline with Tween-80 100 % of control | dose: 100.0 mg/kg/injection, schedule: Q04DX003 (ip), vehicle: saline with Tween-80 90 % of control | dose: 200.0 mg/kg/injection, schedule: Q04DX003 (ip), vehicle: saline with Tween-80 100 % of control

O=C1C=CC(=O)O1 (tested in a mixture with another compound)
inactive: dose: 0.19 mg/kg/injection, schedule: Q01DX009 (ip), vehicle: Klucel (hydroxypropylcellulose) (HPC) 100 % of control | dose: 0.22 mg/kg/injection, schedule: Q01DX009 (ip), vehicle: Klucel (hydroxypropylcellulose) (HPC) 95 % of control | dose: 0.39 mg/kg/injection, schedule: Q01DX009 (ip), vehicle: Klucel (hydroxypropylcellulose) (HPC) 118 % of control | dose: 0.44 mg/kg/injection, schedule: Q01DX009 (ip), vehicle: Klucel (hydroxypropylcellulose) (HPC) 90 % of control | dose: 0.78 mg/kg/injection, schedule: Q01DX009 (ip), vehicle: Klucel (hydroxypropylcellulose) (HPC) 90 % of control | dose: 0.88 mg/kg/injection, schedule: Q01DX009 (ip), vehicle: Klucel (hydroxypropylcellulose) (HPC) 95 % of control | dose: 1.3 mg/kg/injection, schedule: Q01DX009 (ip), vehicle: Klucel (hydroxypropylcellulose) (HPC) 109 % of control | dose: 1.56 mg/kg/injection, schedule: Q01DX009 (ip), vehicle: other 95 % of control | dose: 2.3 mg/kg/injection, schedule: Q04DX003 (ip), vehicle: Klucel (hydroxypropylcellulose) (HPC) 91 % of control | dose: 3.5 mg/kg/injection, schedule: Q04DX003 (ip), vehicle: Klucel (hydroxypropylcellulose) (HPC) 116 % of control | dose: 5.2 mg/kg/injection, schedule: Q04DX003 (ip), vehicle: Klucel (hydroxypropylcellulose) (HPC) 100 % of control | dose: 5.8 mg/kg/injection, schedule: Q04DX003 (ip), vehicle: Klucel (hydroxypropylcellulose) (HPC) 100 % of control | dose: 6.25 mg/kg/injection, schedule: Q01DX009 (ip), vehicle: saline 88 % of control | dose: 7.2 mg/kg/injection, schedule: Q04DX003 (ip), vehicle: Klucel (hydroxypropylcellulose) (HPC) 95 % of control | dose: 8.8 mg/kg/injection, schedule: Q04DX003 (ip), vehicle: Klucel (hydroxypropylcellulose) (HPC) 100 % of control | dose: 12.5 mg/kg/injection, schedule: Q01DX009 (ip), vehicle: saline 97 % of control | dose: 12.5 mg/kg/injection, schedule: Q04DX003 (ip), vehicle: saline 104 % of control | dose: 13.0 mg/kg/injection, schedule: Q04DX003 (ip), vehicle: Klucel (hydroxypropylcellulose) (HPC) 104 % of control | dose: 25.0 mg/kg/injection, schedule: Q04DX003 (ip), vehicle: saline 102 % of control | [5] 102 % of control and 112 % of control and 113 % of control | dose: 50.0 mg/kg/injection, schedule: Q04DX003 (ip), vehicle: saline 115 % of control and 122 % of control and 116 % of control | dose: 150.0 mg/kg/injection, schedule: Q04DX003 (ip), vehicle: saline 122 % of control | [6] 94 % of control [middle of 4 runs] | dose: 300.0 mg/kg/injection, schedule: Q01DX009 (ip), vehicle: saline 100 % of control | dose: 300.0 mg/kg/injection, schedule: Q04DX003 (ip), vehicle: saline 108 % of control and 114 % of control | dose: 400.0 mg/kg/injection, schedule: Q04DX003 (ip), vehicle: saline 121 % of control

COC(C(=O)C(O)C(C)O)C1CC2C=C3C=C(OC4CC(OC5CC(O)C(OC)C(C)O5)C(OC(C)=O)C(C)O4)C(C)C(=O)C3=C(O)C2=C(O)C1OC1CC(OC2CC(OC3CC(C)(O)C(OC(=O)C(C)C)C(C)O3)C(O)C(C)O2)C(O)C(C)O1 (stereo not given)
active: dose: 0.12 mg/kg/injection, schedule: Q01DX001 (ip), vehicle: other 150 % of control | dose: 0.25 mg/kg/injection, schedule: Q01DX001 (ip), vehicle: other 204 % of control | dose: 31.2 micrograms/kg/injection, schedule: Q01DX001 (ip), vehicle: saline 165 % of control | dose: 31.2 micrograms/kg/injection, schedule: Q04DX003 (ip), vehicle: saline 190 % of control | dose: 31.2 micrograms/kg/injection, schedule: Q08DX002 (ip), vehicle: saline 190 % of control | dose: 62.5 micrograms/kg/injection, schedule: Q01DX001 (ip), vehicle: saline 150 % of control and 195 % of control | dose: 62.5 micrograms/kg/injection, schedule: Q08DX002 (ip), vehicle: saline 210 % of control | dose: 125.0 micrograms/kg/injection, schedule: Q01DX001 (ip), vehicle: saline 230 % of control | dose: 125.0 micrograms/kg/injection, schedule: Q08DX002 (ip), vehicle: saline 185 % of control | dose: 250.0 micrograms/kg/injection, schedule: Q01DX001 (ip), vehicle: saline 240 % of control and 150 % of control
inactive: dose: 12.5 micrograms/kg/injection, schedule: Q01DX009 (ip), vehicle: saline 111 % of control | dose: 25.0 micrograms/kg/injection, schedule: Q01DX009 (ip), vehicle: saline 111 % of control | dose: 50.0 micrograms/kg/injection, schedule: Q01DX009 (ip), vehicle: saline 111 % of control | dose: 100.0 micrograms/kg/injection, schedule: Q01DX009 (ip), vehicle: saline 111 % of control | dose: 500.0 micrograms/kg/injection, schedule: Q01DX001 (ip), vehicle: saline 108 % of control | dose: 500.0 micrograms/kg/injection, schedule: Q08DX002 (ip), vehicle: saline 100 % of control

Cc1nc2nc(N)[nH]c(=O)c2[nH]c1=O
inactive: [1] 104 % of control | [2] 100 % of control | [3] 109 % of control

O=C(NCCNCc1ccccc1)c1ccccc1
inactive: dose: 12.5 mg/kg/injection, schedule: Q01DX009 (ip), vehicle: water 96 % of control | dose: 12.5 mg/kg/injection, schedule: Q04DX003 (ip), vehicle: water 92 % of control | dose: 16.0 mg/kg/injection, schedule: Q01DX009 (ip), vehicle: water 100 % of control | dose: 25.0 mg/kg/injection, schedule: Q01DX009 (ip), vehicle: water 99 % of control and 122 % of control | dose: 25.0 mg/kg/injection, schedule: Q04DX003 (ip), vehicle: water 95 % of control and 99 % of control | dose: 40.0 mg/kg/injection, schedule: Q01DX009 (ip), vehicle: water 113 % of control | dose: 50.0 mg/kg/injection, schedule: Q01DX009 (ip), vehicle: water 103 % of control | dose: 50.0 mg/kg/injection, schedule: Q04DX003 (ip), vehicle: water 97 % of control | dose: 100.0 mg/kg/injection, schedule: Q01DX009 (ip), vehicle: water 90 % of control | dose: 100.0 mg/kg/injection, schedule: Q04DX003 (ip), vehicle: water 95 % of control and 99 % of control

CC(C)(C)OC(=O)NC(CCC(=O)O)(Cc1ccccc1)C(=O)NC(CCC(=O)O)(Cc1ccccc1)C(=O)OCc1ccccc1 (stereo not given)
inactive: dose: 200.0 mg/kg/injection, schedule: Q01DX005 (ip), vehicle: saline with Tween-80 90 % of control

CNC(=S)N/N=C(\C)CSC/C(C)=N/NC(=S)NC
inactive: dose: 7.5 mg/kg/injection, schedule: Q01DX009 (ip), vehicle: saline with Tween-80 102 % of control | dose: 15.0 mg/kg/injection, schedule: Q01DX009 (ip), vehicle: saline with Tween-80 99 % of control and 122 % of control | dose: 30.0 mg/kg/injection, schedule: Q01DX009 (ip), vehicle: saline with Tween-80 102 % of control and 124 % of control | dose: 60.0 mg/kg/injection, schedule: Q01DX009 (ip), vehicle: saline with Tween-80 92 % of control

Cc1cc(C)n(-c2nn3nnnc3c3ccccc23)n1
inactive: [5] 95 % of control | dose: 100.0 mg/kg/injection, schedule: Q01DX009 (ip), vehicle: saline 95 % of control | [6] 93 % of control

N=C(Oc1ccccc1)c1ccccc1
inactive: [4] 100 % of control | [1] 102 % of control | [2] 102 % of control

From PubChem BioAssay AID328 (DTP/NCI, 2004)
